Data set [1] deals with neuronal [Cl—]i. As to the kind of experiment: Clomeleon chloride imaging in rat primary cortical neurons. It is filed as cell-based. Here is the method: Chloride imaging of primary cultured cortical neurons was conducted as previously described (Kuner and Augustine, 2000, Neuron 27:447-459; Liedtke et al., 2013, Small 9:1066-1075; Yeo et al., 2009, J Neurosci 29:14652-14662). A Clomeleon expression plasmid was transfected into primary cortical neurons by electroporation (Amaxa Nucleofector Device). Transfected neurons were verified by yellow fluorescent protein (YFP) fluorescence, and ratiometric images (excitation at λ=434 nm, dual emission at λ=485 and 535 nm; for resting chloride, six stable frames at […] were captured, which were averaged) were acquired using RATIOTOOL program. Calibration of Clomeleon signals (535 nm/485 nm emission ratio) was performed by using tributyltin-nigericin to establish a standard curve, which was then normalized for measured intraneuronal pH to take into account the pH sensitivity of Clomeleon.

The test system of data set [2] is motor function and coordination of mice. As to the kind of experiment: Rotarod assay. It is filed as in vivo, mouse. The note with it: 10, 30 mg/kg i.p.; one-time exception high-dose day 7. On the procedure: For assessment in rotarod (RR), all animals received training prior to experiments; mice were placed on the RR apparatus set in an accelerating rotational speed mode (3-30 rpm, 300 s max) per trial. Following training, the average time to fall from the rotating cylinder over three trials was recorded as baseline latency (4-40 rpm, 300 s max/trial). Mice were injected daily with either vehicle or drug compounds before RR tests. Latency to fall was measured (4-40 rpm, 300 s max/trial (inter-trial interval is at least 15 min). The average latency to fall from the rod was recorded for each animal.
With these beneficial effects of KP on pathologic pain and itch, whether KP had undesirable effects on the CNS in terms of sedation, impairment of motor stamina, balance and coordination was assessed. […] Conditioned place preference was used to test whether KP (30 mg/kg; i.p.) can trigger brain reward mechanisms (Jackson et al., 2019, Psychopharmacology, 236(12):3593-3599; Sora et al., 1998, Proc Natl Acad Sci USA 95:7699-7704), and there were no such effects (FIG. 4F). […] In pathologic pain models, KP acts centrally to mediate analgesic effects, and thus relies on KCC2 chloride extrusion.
In general terms: In the rotarod test animals must keep their balance on a rotating rod.

Data set [3] deals with T1, GSK3β (Rattus norvegicus, UniProt P18266).
T1 construct: endogenous in cells; host or cells: primary rat cortical neurons
T1 sequence (P18266 whole entry): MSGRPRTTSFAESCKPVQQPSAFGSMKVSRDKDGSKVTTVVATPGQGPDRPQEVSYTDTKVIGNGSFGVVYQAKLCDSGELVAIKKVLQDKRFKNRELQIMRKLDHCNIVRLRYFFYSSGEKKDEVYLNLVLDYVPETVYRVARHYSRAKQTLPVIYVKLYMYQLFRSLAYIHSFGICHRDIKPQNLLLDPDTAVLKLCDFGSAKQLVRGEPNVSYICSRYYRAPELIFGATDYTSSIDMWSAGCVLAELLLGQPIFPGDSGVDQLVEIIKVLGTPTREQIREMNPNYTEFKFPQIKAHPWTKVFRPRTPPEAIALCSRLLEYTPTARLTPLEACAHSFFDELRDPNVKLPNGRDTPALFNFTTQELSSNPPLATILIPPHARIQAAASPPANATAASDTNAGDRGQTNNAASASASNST
As to the kind of experiment: DARTS assay, GSK3β. It is filed as binding. Particulars: 20 μM KP; independent of detergent treatment. On the procedure:
Cultured primary rat cortical neurons were treated with either vehicle DMSO (0.1%) or 20 μM KP for 30 h. Cells were lysed in ice-cold lysis buffer (Tris.Cl pH8 50 mM, NaCl 150 mM, NP40 0.5%, N-dodecyl-b-D-maltoside 0.5%, Phosphatase Inhibitor (Pierce #88667) and Protease Inhibitor (Roche #11836153001)). Protein concentrations were determined by Bio-Rad DC Protein Assay kit using bovine albumin as standard. All steps were performed on ice. Samples were warmed to room temperature and digested with pronase (final concentration 1:500) for 30 min at 30° C. Digestion was halted using 0.5M EDTA. Only proteins not bound to KP were digested. The protein mixture was dialyzed using dialysis cassettes (Thermo Fisher 66203, 2K MWCO) and analyzed by LC-MS/MS method to identify proteins that are bound to KP, the latter step carried out in the Duke Proteomics Core Laboratory.
A drug affinity responsive target stability (DARTS) assay (Lomenick, et al., 2009, Proc Natl Acad Sci USA 106:21984-21989) was used to study direct binding of KP to GSK3ß (FIG. 8A) in primary cortical neurons. The findings were consistent with previous reports in cell lines (Knockaert, et al., 2002, The Journal of biological chemistry 277:25493-25501) yet novel in primary neurons. […]

Data set [4] deals with δ-cat. Nature of the data set: δ-cat nuclear translocation in primary neurons, immunolabeling morphometry. The class given is cell-based, rat. Particulars: KP vs vehicle, FIG. 8C. On the procedure:
Immunocytochemistry labeling of cultured neuronal cells was carried out as previously described (Liedtke et al., 2013, Small 9, 1066-1075; Yeo et al., 2009, J Neurosci 29:14652-14662; Yeo et al., 2013, Proc Natl Acad Sci USA 110:4315-4320). Primary antibodies are shown in the antibody table. Anti-KCC2 primary antibodies were validated with developing rat primary cortical neurons; we observed an increase in staining pattern that tightly matched increase of KCC2 mRNA expression (Liedtke et al., 2013, Small 9:1066-1075; Yeo et al., 2009, J Neurosci 29:14652-14662.; Yeo et al., 2013, Proc Natl Acad Sci USA 110:4315-4320). Secondary antibodies used were goat anti-mouse IgG Alexa Fluor 594 (Invitrogen A11032) and goat anti-rabbit IgG Alexa Fluor 594 (Invitrogen A11012). DAPI stain was obtained from Sigma Aldrich (D9542). Stained cells were observed using an inverted confocal microscope (Zeiss LSM780).
We obtained stacks of images recorded at 0.35 μm intervals through separate channels with a 63× oil-immersion lens (NA, 1.40, refraction index, 1.45). Zen software (Zeiss) was used to construct composite images from each optical series by combining the images recorded through the different channels, and the same software was used to obtain Z projection images (image resolution: 1024×1024 pixels; pixel size: 0.11 μm). ImageJ was used for morphometry. […]

The subject of data set [5] is N2a cultured cells. As to the kind of experiment: Neuronalization of N2a cultured cells. The class given is cell-based, mouse. Particulars: KP 0.2 μM for 3 days.

Each structure is given as a SMILES string.

In the case of `O=C1Cc2c([nH]c3ccc(Br)cc23)-c2ccccc2N1` [kenpaullone, 9-bromo-7,12-dihydro-indolo [3,2-d] [1]benzazepin-6(5H)-one], the “KCC2 chloride transporter mediated chloride efflux” value in data set [1] (KP vs vehicle at 10 min and 20 min time-points) is given as “does not enhance”. Besides, in data set [1] (clomeleon, after KP treatment vs vehicle), the “neuronal [Cl—]i” value was “robustly and significantly reduced”. Also, the “time to enhanced KCC2 gene expression and KCC2 chloride extrusion function” value in data set [1] (rat neurons, FIG. 2D) is recorded as at most 3 h. In addition, the “elapsed time on the rotarod” value in data set [2] was “does not affect motor stamina and coordination”. Besides, the “binding of KP to GSK3ß” value in data set [3] is “documented”. For the same compound, the δ-cat nuclear translocation result in data set [4] is reported as “significantly increases”. The neuronal differentiation result in data set [5] was “increased process formation”.

These data come from patent publication US20220281930A1, “COMPOSITIONS AND METHODS FOR THE TREATMENT OF PATHOLOGICAL PAIN AND ITCH” (DUKE UNIVERSITY, priority 2019, published 2022).
